Assay results as given in US20070037883A1, “Therapeutic compositions” (priority 2003, published 2007).
Entries after “also recorded” stand apart in the source; their conditions may differ.

Experiments:
rat basilar artery = test: Acetylcholine-induced dilator responses of the rat basilar artery in vivo after subarachnoid haemorrhage; details: suramin 300 mg/kg s.c. over 7 days, 2 days after SAH, FIG. 14
Experimental: (§1) Subarachnoid hemorrhage: On Day 0, rats are briefly anaesthetized (pentobarbital 50 mg/kg ip) and an osmotic minipump containing either saline or suramin is implanted subcutaneously. The dose rate of suramin is 300 mg/kg per 7 days. On Day 5, rats are again anaesthetized and 0.3 ml of blood is withdrawn from a femoral artery and injected into the cerebrospinal fluid around the ventral surface of the brain via the cisterna magna. In some control rats, saline is injected into the cerebrospinal fluid instead of arterial blood. The rat is allowed to recover for a further 2 days, and is then again anaesthetized on Day 7 for study.
Measurement of cerebral artery responses in vivo: Rats are anaesthetized with pentbarbital (50 mg/kg ip) and anaesthesia is maintained with supplemental pentobarbital (10-20 mg/kg per h iv). […] Basilar artery diameter is continuously measured using a computer-based image tracking device. The endothelium-dependent vasodilator acetylcholine is superfused over the basilar artery at a steady concentration of 1 micromolar for 3-5 minutes, and the increase in diameter is measured. The concentration of acetylcholine is then increased to 10, and then 100 micromolar in a similar manner and increases in diameter recorded. […] Responses to acetylcholine are then expressed as a percent of this maximum response. […]

[1] = test system: cerebral artery NADPH-oxidase activity; test: NADPH-induced superoxide production by the rat basilar artery in vitro after subarachnoid haemorrhage, chronic in vivo treatment; design: species or system Sprague-Dawley rats; details: FIG. 13
Experimental: as §1
On Day 0, rats were briefly anaesthetized and an osmotic minipump containing either saline or suramin was implanted subcutaneously. The dose rate of suramin was 30 or 300 mg/kg per 7 days. On Day 5, rats were again anaesthetized and 0.3 ml of blood was withdrawn from a femoral artery and injected into the cerebrospinal fluid around the ventral surface of the brain via the cisterna magna. In some rats, saline was injected into the cerebrospinal fluid instead of arterial blood. […]
The brain was removed and the basilar artery was isolated and then incubated with 5 micromolar lucigenin, 100 micromolar NADPH and 3 millimolar diethyldithiocarbamate. Superoxide production was measured using lucigenin-enhanced chemiluminescence.

SMILES: Cc1ccc(C(=O)Nc2ccc(S(=O)(=O)O)c3cc(S(=O)(=O)O)cc(S(=O)(=O)O)c23)cc1NC(=O)c1cccc(NC(=O)Nc2cccc(C(=O)Nc3cc(C(=O)Nc4ccc(S(=O)(=O)O)c5cc(S(=O)(=O)O)cc(S(=O)(=O)O)c45)ccc3C)c2)c1 [suramin]
- response of basilar artery diameter to acetylcholine in vivo after SAH (rat basilar artery): not impaired; also recorded: prevents any significant reduction
- NADPH (100 μM)-driven superoxide production by isolated basilar artery, control rats ([1]; suramin 30-300 mg/kg over 7 days, control rats without SAH): no effect
- NADPH-driven superoxide production by basilar artery 2 days after SAH ([1]; suramin 30 or 300 mg/kg per 7 days s.c. minipump, rats subjected to SAH): not different from levels measured in non-operated control rats; also recorded: prevents the increase
